Measurements reported in publication PMC6720511, “Synthesis and biological evaluation of novel N-(piperazin-1-yl)alkyl-1H-dibenzo[a,c]carbazole derivatives of dehydroabietic acid as potential MEK inhibitors” (Journal of Enzyme Inhibition and Medicinal Chemistry, 2019).

Legend:
[1] = test system: HepG2 cells; experiment: Lactate dehydrogenase (LDH) leakage assay; type: cell-based, human; details: HepG2, 5 µM, 24 h
Experimental: The cell membrane integrity was determined by LDH leakage assay by using a LDH assay kit (Beyotime, China). In brief, HepG2 cells were plated on 96-well plates at the density of 5 × 10^3 cells per well and allowed to attach overnight. After being incubated with compound 10g for 24 h, the supernatants were collected and centrifuged at the speed of 1000 rpm and were subjected to LDH detection as the description in the manual. The absorbance at 490 nm was measured by a Cytation 3 Cell Imaging Multi-Mode Reader (BioTek Instruments, Inc., Winooski, VT, USA).

[2] = test system: HepG2 cells; experiment: Mitochondrial membrane potential assay (JC-1); type: cell-based, human
Experimental: The JC-1 mitochondrial membrane potential assay kit (Keygene Biotech., China) was employed to measure mitochondrial depolarization in HepG2 cells. Briefly, cells cultured in six-well plates after indicated treatments were incubated with an equal volume of JC-1 staining solution (5 µg/mL) at 37 °C for 20 min and rinsed twice with PBS. Mitochondrial membrane potentials were monitored by determining the relative amounts of dual emissions from mitochondrial JC-1 monomers or aggregates using flow cytometry (Becton-Dickinson FACSCalibur, New York, USA). Mitochondrial depolarization is indicated by an increase in the pencentage of cells with low ΔΨm (green fluorescence, lower right quadrant) compared with cells with high ΔΨm (red fluorescence, upper right quadrant).

[3] = test system: HepG2; experiment: MTT cytotoxic assay; type: cell-based, human; details: Homo sapiens, HepG2, 48 h, mean value ± SD
Experimental: (§1) Three human hepatocarcinoma cell lines (SMMC-7721, HepG2 and Hep3B) and normal hepatocyte cell line (QSG-7701) were maintained in Dulbecco Modified Eagle Medium (DMEM) containing 4.0 mM L-Glutamine and 4500 mg/l Glucose supplemented with 10% (v/v) foetalbovine serum (FBS) and 100 unites/mL penicillin/streptomycin at 37 °C in humidified atmosphere of 5% CO2 and 95% air.
(§2) The in vitro cytotoxic activities of the carbazole derivatives of DHA were evaluated against three human hepatocarcinoma cell lines (SMMC-7721, HepG2 and Hep3B) and a normal human hepatocyte cell line (QSG-7701) via the MTT colorimetric method. Briefly, SMMC-7721, HepG2, Hep3B and QSG-7701 cells were harvested at log phase of growth and seeded in 96-well plates (100 µL/well at a density of 2 × 10^5 cells/mL). After 24 h incubation at 37 °C and 5% CO2 to allow cell attachment, cultures were exposed to various concentrations of the isolated compounds for 48 h. Finally, MTT solution (2.5 mg/mL in PBS) was added (40 µL/well). Plates were further incubated for 4 h at 37 °C, and the formazan crystals formed were dissolved by adding 150 µL/well of DMSO. Absorption at 570 nm was measured with an ELISA plate reader. […] Doxorubicin was co-assayed as positive control.

[4] = test system: Hep3B; experiment: MTT cytotoxic assay; type: cell-based, human; details: Homo sapiens, Hep3B, 48 h, mean value ± SD
Experimental: as §1, §2

[5] = test system: SMMC-7721; experiment: MTT cytotoxic assay; type: cell-based, human; details: Homo sapiens, SMMC-7721, 48 h, mean value ± SD
Experimental: as §1, §2

[6] = Cell death inhibition assay; type: cell-based, human; details: human, HepG2 cells, 10g alone, 10 µM, read-out: relative cell viability of HepG2 cells
Experimental: Figure 6. Compound 10g induced oncosis and apoptosis of HepG2 cells. (a) PD150606 and Z-VAD-FMK partially reversed compound 10g-induced cell death. HepG2 cells were incubated with PD150606, Z-VAD-FMK or Necrostatin-1 at indicated concentration for 24 h alone or in combination with compound 10g at indicated concentration for 24 h. (b) Compound 10g induced the degradation of α-tubulin and β-actin, and activated oncosis marker calpain-1 autolysis from the 80 kDa event to 76 kDa event in western blot analysis. *, p < 0.01; **, p < 0.01; #, p < 0.01; &, p < 0.001. (c) Compound 10g induced the upregulation of apoptotic protein Bax, caspase-3, caspase-9 and plasmic cytochrome c levels, and the downregulation of antiapoptotic protein Bcl-2 level. *, p < 0.001; **, p < 0.01; #, p < 0.01; and p < 0.01.

[7] = test system: normal hepatocyte cell line (QSG-7701); experiment: MTT cytotoxic assay on normal hepatocytes; type: cell-based, human; details: Homo sapiens, QSG7701, 48 h, mean value ± SD
Experimental: as §1, §2

[8] = target: T1, MEK1 (Homo sapiens, UniProt Q02750); experiment: In vitro MEK1 inhibition assay (ADP-Glo kinase assay); type: biochemical; details: recombinant GST-MEK1, GST-ERK2, 10 µM ATP, mean value ± SD; read-out: MEK1 inhibitory activity IC50 value
T1 construct: purchased Carna Biosciences, Japan
Experimental: An in vitro kinase assay of MEK1 was performed using ADP-Glo kinase assay (Promega, Madison, WI, USA) according to the manufacturer’s protocol. […] Reactions were stopped by adding 5 µL of ADP-Glo reagent to each well. After incubating at 22 °C for 40 min, 10 µL of the kinase detection reagent was added and the plates were incubated for another 30 min at 22 °C in the dark. The reaction mixture was analysed by EnSpire (PerkinElmer, Waltham, MA, USA). U0126 was used as the positive control for MEK1 inhibition.

[9] = test system: HepG2 cells; experiment: Western blot of oncosis and apoptosis markers; type: cell-based, human
Experimental: HepG2 cells were seeded at a density of 5 × 10^6 cells per well and attached for 8 h, and then treated with different concentrations of compound 10g for 48 h. After the treatment, the cells were harvested and washed twice with PBS. The harvested cells were lysed with radio-immunoprecipitation assay (RIPA) lysis buffer (Beyotime Biotech., Nantong, China) with 1% cocktail (Sigma-Aldrich, USA). Whole-cell protein lysates were prepared and centrifuged at 12,000 rpm for 10 min at 4 °C. The total proteins were determined using Bradford reagent (Bio-Rad Laboratories, Inc., USA). Exactly 40 µg of protein per lane was separated through sodium dodecyl sulfate-polyacrylamide gel electrophoresis and then transferred onto a polyvinylidene difluoride membrane (Millipore, Bedford, MA, USA). The membranes were incubated with each antibody and detected through immunoblot analysis. All of the antibodies were purchased from Cell signaling Technology, Inc. (Boston, MA, USA) and diluted in accordance with the manufacturer’s instruction. Proteins were visualized using a C-Digit® imaging system (LI-COR Biosciences, Lincoln, NE, USA).

T1 sequence (Q02750 whole entry): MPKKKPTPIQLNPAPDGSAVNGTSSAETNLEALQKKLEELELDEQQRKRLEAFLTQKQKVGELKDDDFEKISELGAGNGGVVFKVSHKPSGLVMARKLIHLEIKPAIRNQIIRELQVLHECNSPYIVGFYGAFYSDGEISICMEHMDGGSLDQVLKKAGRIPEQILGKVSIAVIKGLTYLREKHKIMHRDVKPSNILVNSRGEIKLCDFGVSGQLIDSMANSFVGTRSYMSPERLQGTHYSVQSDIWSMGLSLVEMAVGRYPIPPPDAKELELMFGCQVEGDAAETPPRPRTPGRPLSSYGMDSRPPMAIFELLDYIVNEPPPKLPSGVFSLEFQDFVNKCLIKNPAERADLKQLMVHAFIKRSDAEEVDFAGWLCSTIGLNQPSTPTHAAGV

IC50 [8]: 110 ± 20 nM
Compound: CCOc1ccc2c(c1)c1c(n2CCN2CCNCC2)-c2cc(C(C)C)ccc2C2(C)CCCC(C)(C(=O)OC)C12 (centres unmarked) [Compound 10g, 2,3,4,4a,9,13c-Hexahydro-12-ethoxy-7-isopropyl-1,4a-dimethyl-9–(2-(piperazin-1-yl)ethyl)-1H-dibenzo[a,c]carbazole-1-carboxylic acid methyl ester]
relative LDH leakage level [1]: 93.03%
percentage of cells with low ΔΨm (lower right quadrant) ([2]; HepG2, 0.2 µM): 5.29%
percentage of cells with low ΔΨm (lower right quadrant) ([2]; HepG2, 0.5 µM): 9.47%
percentage of cells with low ΔΨm (lower right quadrant) ([2]; HepG2, 1.0 µM): 15.00%
IC50 [3]: 510 ± 90 nM
IC50 [4]: 730 ± 80 nM
IC50 [5]: 1390 ± 130 nM
viability at 24 h, 10 µM [6]: 1.22%
IC50 [7]: 12500 ± 580 nM
level of cytochrome c, caspase-3 and caspase-9 (in words) [9]: increased dose-dependently
ratio of Bax/Bcl-2 (in words) [9]: increased significantly
calpain-1 autolysis (in words) ([9]; 48 h): autolysed from 80 kDa event to 76 kDa event in a dose-dependent manner
level of α-tubulin and β-actin (in words) ([9]; dose-dependent): significant decrease
